According to patent publication US20210100245A1, “SYNERGISTIC FORMULATIONS FOR CONTROL AND REPELLENCY OF BITING ARTHROPODS” (BEDOUKIAN RESEARCH, INC., priority 2019, published 2021):

System: Adult female Aedes aegypti
Test: Membrane feeder repellency test: mosquitoes probing treated collagen membranes over blood-filled wells
Assay type: in vivo
Settings: for Test results (quantity not named; percentage from mosquito probing counts): 6.25 μl on collagen membrane, probes counted every 2 min for 20 min; for Test results, percentage relative to 0.3 wt % DEET in the same test: total repellent 0.30%, relative to 0.3 wt % DEET (=100%)
Protocol: Adult female Aedes aegypti were obtained from the i2LResearch USA, Inc. colony. Two hundred fifty (250) mosquitoes were used per replicate (seven replicates). Mosquitoes were at least 6 days old and had been deprived of sucrose solution for at least 18 hours prior to testing.
An exposure container was used to present the mosquitoes with a choice of blood-filled wells that were covered with collagen membranes (3 cm in diameter). The collagen membranes were treated by pipetting 6.25 μI of the test treatment onto the appropriate membrane and spreading it evenly with the tip of the pipette.
Exposure container. A 30.5 cm×30.5 cm×30.5 cm container (rigid plastic frame and a sleeved entry on one side and a sliding trap door on the bottom). The container was supported by four (4 cm high) legs.
Membrane feeder. Five wells (3 cm in diameter×8 mm in depth) in line on a hollow plastic block (6 cm wide×22 cm long×3 cm deep). The plastic block fit into the bottom of the exposure container. Hoses mounted on either end of the membrane feeder carried warm water that was pumped from a water bath. The sliding plastic trap door in the bottom of the exposure container covered and uncovered the wells in the membrane feeder, allowing mosquitoes to access the blood-filled wells that were covered with treated collagen membranes.
Study set-up. The membrane feeder was connected to a heated water bath, and warm water passed through the feeder via a circulating pump so that the wells were warmed to 96-100° F. Seventy-two (72) mg of ATP (disodium salt) were added to 26 ml of bovine blood. Sodium citrate was also added to the blood during collection to prevent clotting. The blood was poured into the wells until it completely filled each well (meniscus slightly above the level of the well).
Circular pieces (3 cm in diameter) of collagen membrane were placed over each of the wells. Care was taken to eliminate all air bubbles from between the membrane and the surface of the blood. Once wells were prepared, the blood was allowed to warm until the membrane temperature reached […]. Temperature was confirmed using a surface thermometer.
Treatment and exposure to mosquitoes. Once the collagen membranes were placed over the blood-filled wells, they were treated as described above. The membranes were allowed to dry for five minutes. Then the exposure container was placed on the membrane feeder. The trap door in the floor of the container was slid back, exposing the mosquitoes to the membranes. The number of mosquitoes probing the membrane covering each well was recorded every two minutes for twenty minutes. If a minimum of 20 total control probes were not achieved in a replicate, the replicate was repeated.
The above procedures were repeated until seven acceptable replicates were completed. […]

CC1CCC(C(C)C)C(OCC(O)CO)C1 (stereo not shown) [Coolact 10, menthoxypropane-1,2-diol]
Test results (quantity not named; percentage from mosquito probing counts) (concentration 0.15%): 45.4% | Test results (quantity not named; percentage from mosquito probing counts) (concentration 0.30%): 41.5%

CCN(CC)C(=O)c1cccc(C)c1 [DEET, N,N-diethyl-m-toluamide, reference compound]
Test results, percentage relative to 0.3 wt % DEET in the same test: 100.0%

CCNC(=O)C1CC(C)CCC1C(C)C (stereo not shown) [WS3, N-ethyl-p-menthane-3-carboxamide]
Test results, percentage relative to 0.3 wt % DEET in the same test: 130.0%
